Laboratory results: paper doi:10.64898/2026.08.16.745104v1, “C. elegans Dicer stacks with the RIG-I-like receptor DRH-1 to cleave dsRNA” (biorxiv, 2026)

How the values were obtained:
[1] = biological target: T1, DCR-1 in the antiviral complex (AVC; DCR-1•DRH-1•RDE-4) (Caenorhabditis elegans, UniProt P34529); test: cryo-EM structure, […] Å; assay type: binding; conditions: helicase nucleotide pocket between Hel1 and Hel2; Mg2+; sample incubated with 5 mM ATP and 3'ovr 106-dsRNA, pH 7.5, 20 °C
T1 construct: three proteins co-expressed in Sf9 cells (baculovirus), StrepTrap and Superose 6 purified; ADP in DCR-1 helicase domain (Hel1/Hel2); with Dicer Related Helicase

[2] = biological target: T2, DRH-1 in the antiviral complex (AVC; DCR-1•DRH-1•RDE-4) (Caenorhabditis elegans, UniProt G5EDI8); test: cryo-EM structure, […] Å; conditions: ATP-binding pockets of both DRH-1 helicases (DRH-1 and DRH-1*); sample incubated with 5 mM ATP and 3'ovr 106-dsRNA, pH 7.5, 20 °C
T2 construct: three proteins co-expressed in Sf9 cells (baculovirus), StrepTrap and Superose 6 purified; two stacked DRH-1 helicases (DRH-1 and DRH-1*, the latter only helicase and CTD resolved); with Endoribonuclease dcr-1
T2 sequence (G5EDI8 1-1037): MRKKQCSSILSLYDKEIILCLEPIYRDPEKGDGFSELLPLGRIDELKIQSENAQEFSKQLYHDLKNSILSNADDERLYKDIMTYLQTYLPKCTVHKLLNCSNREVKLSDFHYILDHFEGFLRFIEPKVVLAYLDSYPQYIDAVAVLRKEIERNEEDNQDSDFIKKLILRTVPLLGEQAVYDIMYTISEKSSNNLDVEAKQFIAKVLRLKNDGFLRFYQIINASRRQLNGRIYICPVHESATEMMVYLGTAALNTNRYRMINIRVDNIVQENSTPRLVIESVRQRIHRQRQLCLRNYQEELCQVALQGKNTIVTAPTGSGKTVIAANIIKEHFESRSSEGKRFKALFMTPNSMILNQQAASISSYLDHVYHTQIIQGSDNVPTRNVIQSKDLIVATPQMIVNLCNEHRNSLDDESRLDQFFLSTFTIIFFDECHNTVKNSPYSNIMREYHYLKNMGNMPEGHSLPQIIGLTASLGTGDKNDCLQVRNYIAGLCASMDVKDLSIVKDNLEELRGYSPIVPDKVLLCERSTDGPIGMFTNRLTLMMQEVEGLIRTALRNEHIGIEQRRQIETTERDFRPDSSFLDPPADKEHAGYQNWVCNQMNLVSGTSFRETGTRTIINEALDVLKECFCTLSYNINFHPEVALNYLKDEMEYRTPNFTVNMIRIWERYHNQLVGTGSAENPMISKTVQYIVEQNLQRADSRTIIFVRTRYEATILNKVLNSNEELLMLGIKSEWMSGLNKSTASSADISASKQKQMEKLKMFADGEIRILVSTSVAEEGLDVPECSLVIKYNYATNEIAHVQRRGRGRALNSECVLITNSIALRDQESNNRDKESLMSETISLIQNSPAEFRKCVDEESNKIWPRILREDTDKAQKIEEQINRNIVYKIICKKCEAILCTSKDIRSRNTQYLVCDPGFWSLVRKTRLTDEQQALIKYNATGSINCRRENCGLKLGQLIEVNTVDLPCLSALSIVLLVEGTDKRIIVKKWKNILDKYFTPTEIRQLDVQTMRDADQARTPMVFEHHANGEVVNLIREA
T2 sequence (P34529 whole entry partner): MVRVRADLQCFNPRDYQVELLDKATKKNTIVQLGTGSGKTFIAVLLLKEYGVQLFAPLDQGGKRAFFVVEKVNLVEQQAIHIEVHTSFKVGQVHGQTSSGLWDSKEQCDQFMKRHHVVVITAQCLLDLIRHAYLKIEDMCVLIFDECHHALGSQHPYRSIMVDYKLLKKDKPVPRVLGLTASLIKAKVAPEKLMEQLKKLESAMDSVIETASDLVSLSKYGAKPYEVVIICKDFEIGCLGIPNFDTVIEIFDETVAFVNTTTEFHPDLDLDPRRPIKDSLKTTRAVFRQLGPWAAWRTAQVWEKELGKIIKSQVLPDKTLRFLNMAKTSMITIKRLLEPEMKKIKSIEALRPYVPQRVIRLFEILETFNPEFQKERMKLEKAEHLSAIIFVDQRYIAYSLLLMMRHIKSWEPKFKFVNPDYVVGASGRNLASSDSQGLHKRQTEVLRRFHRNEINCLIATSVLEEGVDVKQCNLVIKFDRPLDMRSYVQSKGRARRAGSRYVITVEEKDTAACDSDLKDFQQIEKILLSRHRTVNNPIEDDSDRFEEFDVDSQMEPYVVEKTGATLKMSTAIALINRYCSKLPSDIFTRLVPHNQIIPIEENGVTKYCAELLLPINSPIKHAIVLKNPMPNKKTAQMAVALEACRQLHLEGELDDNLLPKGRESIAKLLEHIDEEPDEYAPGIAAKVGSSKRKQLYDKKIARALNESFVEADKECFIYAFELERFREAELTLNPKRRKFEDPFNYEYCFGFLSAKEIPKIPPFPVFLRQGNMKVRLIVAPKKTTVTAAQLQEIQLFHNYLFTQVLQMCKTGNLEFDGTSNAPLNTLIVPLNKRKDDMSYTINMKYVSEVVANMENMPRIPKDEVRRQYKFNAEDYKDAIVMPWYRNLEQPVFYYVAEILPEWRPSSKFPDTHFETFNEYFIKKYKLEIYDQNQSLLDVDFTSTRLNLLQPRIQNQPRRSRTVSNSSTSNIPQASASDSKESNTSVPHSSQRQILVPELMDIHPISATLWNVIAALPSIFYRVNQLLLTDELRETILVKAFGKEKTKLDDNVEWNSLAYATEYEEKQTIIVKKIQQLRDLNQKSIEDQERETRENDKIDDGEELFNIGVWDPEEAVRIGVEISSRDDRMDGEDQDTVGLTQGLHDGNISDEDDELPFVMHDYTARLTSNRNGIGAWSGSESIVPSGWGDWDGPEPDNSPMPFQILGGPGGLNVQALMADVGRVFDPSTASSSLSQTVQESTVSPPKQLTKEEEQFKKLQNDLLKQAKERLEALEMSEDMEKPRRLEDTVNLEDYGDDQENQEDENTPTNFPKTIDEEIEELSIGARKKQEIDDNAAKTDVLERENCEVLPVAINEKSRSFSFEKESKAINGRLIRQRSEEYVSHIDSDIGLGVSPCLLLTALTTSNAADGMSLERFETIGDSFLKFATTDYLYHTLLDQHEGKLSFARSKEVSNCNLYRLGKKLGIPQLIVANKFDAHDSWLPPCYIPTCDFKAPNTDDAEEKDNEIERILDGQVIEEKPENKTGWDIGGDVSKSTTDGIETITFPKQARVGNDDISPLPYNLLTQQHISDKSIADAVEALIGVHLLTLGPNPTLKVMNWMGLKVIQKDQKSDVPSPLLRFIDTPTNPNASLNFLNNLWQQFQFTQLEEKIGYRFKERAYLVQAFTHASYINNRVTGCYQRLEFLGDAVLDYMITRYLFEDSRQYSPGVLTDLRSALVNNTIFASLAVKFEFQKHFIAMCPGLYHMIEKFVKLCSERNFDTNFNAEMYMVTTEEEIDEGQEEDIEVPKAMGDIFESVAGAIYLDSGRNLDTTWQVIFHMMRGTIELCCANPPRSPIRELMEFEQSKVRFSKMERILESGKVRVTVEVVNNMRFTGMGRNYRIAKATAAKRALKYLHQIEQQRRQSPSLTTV
T2 sequence (G5EBF5 1-385 partner): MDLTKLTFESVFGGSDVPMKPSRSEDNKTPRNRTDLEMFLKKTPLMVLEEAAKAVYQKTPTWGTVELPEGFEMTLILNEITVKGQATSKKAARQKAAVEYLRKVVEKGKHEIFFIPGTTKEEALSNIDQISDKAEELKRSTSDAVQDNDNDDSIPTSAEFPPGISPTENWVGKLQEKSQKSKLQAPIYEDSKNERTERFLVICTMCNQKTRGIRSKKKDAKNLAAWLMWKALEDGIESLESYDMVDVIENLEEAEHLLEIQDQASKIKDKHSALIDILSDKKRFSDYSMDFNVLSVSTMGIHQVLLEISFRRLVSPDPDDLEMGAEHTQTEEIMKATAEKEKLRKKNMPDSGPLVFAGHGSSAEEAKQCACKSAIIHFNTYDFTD

T1 sequence (P34529 whole entry, the tested form may be a part): as the sequence (P34529 whole entry partner) above
T1 sequence (G5EDI8 1-1037 partner): as the sequence (G5EDI8 1-1037) above
T1 sequence (G5EBF5 1-385 partner): as the sequence (G5EBF5 1-385 partner) above

Structure (SMILES): Nc1ncnc2c1ncn2[C@@H]1O[C@H](COP(=O)(O)OP(=O)(O)O)[C@@H](O)[C@H]1O [ADP]
- cryo-EM structure, 3.0 Å [1]: we modeled ADP within the conserved nucleotide-binding pocket of the DCR-1 helicase
- cryo-EM structure, 3.0 Å [2]: ADP was also present in the ATP-binding pockets of both DRH-1 helicases
